Source: ChEMBL document CHEMBL1201862, “PubChem BioAssay data set” (2004)
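In this assay, cells in 96-well plates receive the compound at five concentrations for 48 hours. Endpoints are linearly interpolated between the surrounding concentrations. GI50 marks 50% less growth.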 Activity calls are given as the source filed them. Cut-off read from the data, not from the text of the source: active = GI50 up to about 1.1 µM and inactive = higher.

Assays:
Assay in all cases: NCI tumour cell line growth inhibition, 48 h
HOP-92 = test system: HOP-92
COLO 205 = test system: COLO 205
LOX IMVI = test system: LOX IMVI
CCRF-CEM = test system: CCRF-CEM
UO-31 = test system: UO-31
SK-MEL-2 = test system: SK-MEL-2
UACC-62 = test system: UACC-62
T47D = test system: T47D
TK-10 = test system: TK-10
NCI-H522 = test system: NCI-H522
SW-620 = test system: SW-620
SNB-19 = test system: SNB-19
HCT-15 = test system: HCT-15
M14 = test system: M14
Malme-3M = test system: Malme-3M
ACHN = test system: ACHN
MDA-MB-435 = test system: MDA-MB-435
CAKI-1 = test system: CAKI-1
SK-MEL-28 = test system: SK-MEL-28
SN12C = test system: SN12C
KM12 = test system: KM12
K562 = test system: K562
OVCAR-4 = test system: OVCAR-4
SK-MEL-5 = test system: SK-MEL-5
MDA-MB-231 = test system: MDA-MB-231
PC-3 = test system: PC-3
OVCAR-8 = test system: OVCAR-8
HT-29 = test system: HT-29
HL-60 = test system: HL-60
NCI-H23 = test system: NCI-H23
MOLT-4 = test system: MOLT-4
U-251 = test system: U-251
DU-145 = test system: DU-145
HCC 2998 = test system: HCC 2998
786-0 = test system: 786-0
MCF7 = test system: MCF7
RPMI-8226 = test system: RPMI-8226
IGROV-1 = test system: IGROV-1
EKVX = test system: EKVX
BT-549 = test system: BT-549
Hs-578T = test system: Hs-578T
SR = test system: SR
SNB-75 = test system: SNB-75
NCI-H460 = test system: NCI-H460
UACC-257 = test system: UACC-257
NCI-H226 = test system: NCI-H226
MDA-N = test system: MDA-N
A498 = test system: A498
NCI/ADR-RES = test system: NCI/ADR-RES
HCT-116 = test system: HCT-116
SF-539 = test system: SF-539
OVCAR-5 = test system: OVCAR-5
SF-268 = test system: SF-268
A549 = test system: A549
RXF 393 = test system: RXF 393
OVCAR-3 = test system: OVCAR-3
SK-OV-3 = test system: SK-OV-3
SF-295 = test system: SF-295
HOP-62 = test system: HOP-62

Measured: GI50

N#CC1C(=S)NC(c2ccccc2)=CC12CCCCC2 (centres undefined)
inactive: HOP-92 18.6 µM | COLO 205 30.1 µM | LOX IMVI 18.6 µM | CCRF-CEM 25.5 µM | UO-31 25 µM | SK-MEL-2 24 µM | UACC-62 20 µM | T47D 10.8 µM | TK-10 23 µM | NCI-H522 22.1 µM | SW-620 38.8 µM | SNB-19 32.5 µM | M14 26.1 µM | Malme-3M 22.2 µM | ACHN 25.1 µM | MDA-MB-435 18.2 µM | CAKI-1 47.3 µM | SK-MEL-28 34.4 µM | SN12C 35 µM | KM12 22.9 µM | K562 26.5 µM | OVCAR-4 26.4 µM | SK-MEL-5 25.1 µM | MDA-MB-231 38.9 µM | PC-3 38 µM | OVCAR-8 32.1 µM | HT-29 27.6 µM | HL-60 22.2 µM | NCI-H23 15.7 µM | MOLT-4 20.7 µM | U-251 31.1 µM | DU-145 26.6 µM | HCC 2998 > 100 µM | 786-0 35 µM | MCF7 21.9 µM | RPMI-8226 23.3 µM | IGROV-1 23.4 µM | EKVX 17.8 µM | BT-549 15.8 µM | Hs-578T 53.7 µM | SR 21.1 µM | SNB-75 58.7 µM | NCI-H460 94.8 µM | UACC-257 64.7 µM | NCI-H226 26.7 µM | MDA-N 31.5 µM | A498 22.8 µM | NCI/ADR-RES 28.8 µM | HCT-116 24.5 µM | SF-539 43 µM | OVCAR-5 37.5 µM | SF-268 66.8 µM | A549 29.6 µM | RXF 393 87.1 µM
19.9 µM: HCT-15

O=C(NCCN(CCNC(=O)c1cccc(=O)n1O)CCNC(=O)c1cccc(=O)n1O)c1cccc(=O)n1O
> 100 µM: HCT-15
inactive: HOP-92 > 100 µM | COLO 205 > 100 µM | CCRF-CEM > 100 µM | UO-31 > 100 µM | SK-MEL-2 > 100 µM | UACC-62 > 100 µM | T47D > 100 µM | TK-10 > 100 µM | OVCAR-3 > 100 µM | SK-OV-3 > 100 µM | NCI-H522 > 100 µM | SW-620 > 100 µM | SNB-19 > 100 µM | M14 > 100 µM | Malme-3M > 100 µM | ACHN > 100 µM | MDA-MB-435 > 100 µM | SF-295 > 100 µM | CAKI-1 > 100 µM | SK-MEL-28 > 100 µM | SN12C > 100 µM | KM12 > 100 µM | HOP-62 > 100 µM | K562 > 100 µM | OVCAR-4 > 100 µM | SK-MEL-5 > 100 µM | MDA-MB-231 > 100 µM | PC-3 > 100 µM | OVCAR-8 > 100 µM | HT-29 > 100 µM | HL-60 > 100 µM | NCI-H23 > 100 µM | U-251 > 100 µM | DU-145 > 100 µM | HCC 2998 > 100 µM | MCF7 > 100 µM | RPMI-8226 > 100 µM | IGROV-1 > 100 µM | BT-549 > 100 µM | Hs-578T > 100 µM | SR > 100 µM | SNB-75 > 100 µM | NCI-H460 > 100 µM | UACC-257 > 100 µM | NCI-H226 > 100 µM | MDA-N > 100 µM | A498 > 100 µM | NCI/ADR-RES > 100 µM | SF-539 > 100 µM | OVCAR-5 > 100 µM | SF-268 > 100 µM | A549 > 100 µM | RXF 393 > 100 µM

CO/N=C1/C(n2[nH]c(=O)n(-c3ccccc3)c2=O)C2C=CC1n1c(=O)n(-c3ccccc3)c(=O)n12 (centres undefined)
inactive: COLO 205 > 100 µM | LOX IMVI > 100 µM | CCRF-CEM > 100 µM | UO-31 > 100 µM | SK-MEL-2 > 100 µM | UACC-62 > 100 µM | T47D > 100 µM | TK-10 > 100 µM | OVCAR-3 > 100 µM | SK-OV-3 > 100 µM | NCI-H522 > 100 µM | SW-620 > 100 µM | SNB-19 > 100 µM | M14 > 100 µM | Malme-3M > 100 µM | MDA-MB-435 > 100 µM | CAKI-1 > 100 µM | SK-MEL-28 > 100 µM | SN12C > 100 µM | KM12 > 100 µM | K562 > 100 µM | OVCAR-4 > 100 µM | SK-MEL-5 > 100 µM | MDA-MB-231 > 100 µM | PC-3 > 100 µM | OVCAR-8 > 100 µM | HT-29 > 100 µM | HL-60 > 100 µM | NCI-H23 > 100 µM | MOLT-4 > 100 µM | U-251 > 100 µM | DU-145 > 100 µM | HCC 2998 > 100 µM | 786-0 > 100 µM | MCF7 > 100 µM | RPMI-8226 > 100 µM | IGROV-1 > 100 µM | EKVX > 100 µM | BT-549 > 100 µM | Hs-578T > 100 µM | SR > 100 µM | SNB-75 > 100 µM | NCI-H460 > 100 µM | UACC-257 > 100 µM | NCI-H226 > 100 µM | MDA-N > 100 µM | A498 > 100 µM | NCI/ADR-RES > 100 µM | HCT-116 > 100 µM | SF-539 > 100 µM | OVCAR-5 > 100 µM | SF-268 > 100 µM | A549 > 100 µM | RXF 393 > 100 µM
> 100 µM: HCT-15

OC1(c2ccccc2)C2CC=CC2C1(c1ccccc1)c1ccccc1 (centres undefined)
inactive: HOP-92 33.3 µM | COLO 205 18.4 µM | LOX IMVI 18 µM | CCRF-CEM 27.8 µM | UO-31 31.1 µM | SK-MEL-2 12 µM | UACC-62 23.9 µM | T47D 23.1 µM | TK-10 29.6 µM | OVCAR-3 30.8 µM | SK-OV-3 38.9 µM | NCI-H522 13.5 µM | SW-620 30.2 µM | SNB-19 51.3 µM | M14 32.7 µM | Malme-3M 19.5 µM | ACHN 43.5 µM | MDA-MB-435 20.7 µM | SF-295 34 µM | CAKI-1 17.1 µM | SK-MEL-28 40.1 µM | SN12C 30.1 µM | KM12 20.6 µM | HOP-62 70.3 µM | K562 35.6 µM | SK-MEL-5 17.2 µM | MDA-MB-231 40.6 µM | PC-3 42.6 µM | OVCAR-8 40.2 µM | HT-29 18.4 µM | HL-60 27.8 µM | NCI-H23 41.9 µM | MOLT-4 16.1 µM | U-251 32.5 µM | DU-145 61.7 µM | HCC 2998 19.8 µM | 786-0 61.7 µM | MCF7 26.4 µM | RPMI-8226 25.6 µM | IGROV-1 20.1 µM | EKVX 20.5 µM | BT-549 30.3 µM | Hs-578T 38.3 µM | SR 19.2 µM | SNB-75 34.1 µM | NCI-H460 27 µM | UACC-257 27 µM | MDA-N 25 µM | A498 15.8 µM | NCI/ADR-RES 44.3 µM | HCT-116 31.2 µM | SF-539 77.1 µM | OVCAR-5 60.8 µM | SF-268 31 µM | A549 25.2 µM | RXF 393 16.7 µM
28.6 µM: HCT-15

O=C(O)c1nc2ccc(Cl)cc2[nH]c1=O
> 100 µM: HCT-15
inactive: HOP-92 > 100 µM | COLO 205 > 100 µM | LOX IMVI > 100 µM | CCRF-CEM > 100 µM | UO-31 46.8 µM | SK-MEL-2 > 100 µM | UACC-62 > 100 µM | T47D > 100 µM | TK-10 > 100 µM | OVCAR-3 > 100 µM | SK-OV-3 > 100 µM | NCI-H522 > 100 µM | SW-620 > 100 µM | SNB-19 > 100 µM | M14 > 100 µM | Malme-3M > 100 µM | ACHN > 100 µM | MDA-MB-435 > 100 µM | SF-295 > 100 µM | CAKI-1 > 100 µM | SK-MEL-28 > 100 µM | SN12C > 100 µM | KM12 > 100 µM | HOP-62 > 100 µM | K562 > 100 µM | OVCAR-4 > 100 µM | SK-MEL-5 > 100 µM | MDA-MB-231 > 100 µM | PC-3 > 100 µM | OVCAR-8 > 100 µM | HT-29 > 100 µM | HL-60 > 100 µM | NCI-H23 > 100 µM | MOLT-4 > 100 µM | U-251 > 100 µM | DU-145 > 100 µM | HCC 2998 > 100 µM | 786-0 > 100 µM | MCF7 > 100 µM | RPMI-8226 > 100 µM | IGROV-1 > 100 µM | EKVX > 100 µM | BT-549 > 100 µM | Hs-578T > 100 µM | SR > 100 µM | NCI-H460 > 100 µM | UACC-257 > 100 µM | NCI-H226 > 100 µM | MDA-N > 100 µM | A498 > 100 µM | NCI/ADR-RES > 100 µM | HCT-116 > 100 µM | SF-539 > 100 µM | OVCAR-5 > 100 µM | SF-268 > 100 µM | A549 > 100 µM | RXF 393 > 100 µM
